Reference: patent publication US9205071B2, “Arsenic compounds, their preparation methods and uses thereof” (Changzhou Hi-Tech District Multiple Dimension Industry …, priority 2009, dated 2015)

Columns and labels:
[1] = tested on: HL-60 cells; assay: Cell viability test (Trypan blue, live cell rate)
[2] = tested on: HL-60 cells; assay: Cell proliferation test (MTT method); assay type: cell-based; settings: HL-60 cell proliferation, 48 h
Procedure: Tested drugs with different concentrations were added, and repeated four wells for each drug concentration group, then continued to culture in a CO2 incubator. Cell proliferation was detected by MTT method 48 h after culture. 15 ul MTT (5 mg/ml) was added in each well, and continued to culture for 4 h. Suspension in the well was collected, centrifuged, and supernatant was discarded. 100 ul of DMSO was added into each well to completely dissolve formazan particles. The solution was sucked into the original well, the absorbance at 492 nm was detected by ELISA, and the inhibiting rate was calculated according to the formula CI=(1-A test group /A control group)×100%.

## O=[As]([O-])([O-])[O-].[Na+].[Na+].[Na+] [Na3AsO4]
[1]; 7.5 uM
  live cell rate at 4 d after administration: 93.11%
[1]; 15 uM
  live cell rate at 4 d after administration: 89.06%
[1]; 30 uM
  live cell rate at 4 d after administration: 75.36%
[1]; 60 uM
  live cell rate at 4 d after administration: 60.06%
[1]; 120 uM
  live cell rate at 4 d after administration: 43.11%
[2]; 7.5 uM
  Inhibiting rate: 2.5%
[2]; 15 uM
  Inhibiting rate: 7.9%
[2]; 30 uM
  Inhibiting rate: 13.9%
[2]; 60 uM
  Inhibiting rate: 24.5%
